Reference: patent US20110300198A1, “HYDROCOLLOID - ESSENTIAL OIL PATCHES” (priority 2010, published 2011)
Where a name gives a salt, the structure may show the parent alone. Marks after values point to notes of the source that are not given here.

Tests used:
[1] = In-vivo experiment with HP-5 column, constituents in blood; parameters: species or system rat; settings: male, Sprague-Dawley, rat, in vivo
From the text: (§1) Male Sprague-Dawley rats, weighing 300-350 g, were used in the studies (Harlan, Rehovot, Israel). The experimental protocols were approved by the Hebrew University of Jerusalem Committee on the Use and Care of Animals. Rats were maintained under specified-pathogen-free (SPF) conditions and were allowed to acclimate to the environment for at least 7 days before their use in the study. Rats were anesthetized and the fur on their stomach shaved prior to exposure. Gum karaya patches with and without lavender essential oil were applied to the rat's stomach skin. Each rat was housed in an individual cage in order to prevent oral contamination of the essential oil by one rat eating another's patch. Blood samples (0.5 ml) were taken at 0, 12, 24, 36, 48 and 60 h from a nick at the tip of tail to determine contents of essential-oil components. Rats were restrained and the tail was gently massaged to facilitate blood collection. Blood samples were collected in vials containing 0.1 ml heparin (100 kU, Sigma). A 10-μl volume of aqueous linalyl isovalerate stock solution was added as an internal standard to each blood sample and samples were stored at −80° C. After 60 h, patches were removed and the application site was wiped with 70% alcohol. Animals were sacrificed and the patch of stomach skin to which the essential oil patch had been applied was removed and minced into small pieces. The skin pieces were placed in 1 ml of ethanol containing linalyl isovalerate as the internal standard and sonicated for 30 min after heating to 50° C. A 10-μl aliquot was then injected straight into the gas chromatograph. A urine sample (0.5 ml) was obtained from the bladder immediately after sacrifice. Urine samples were similarly analyzed by gas chromatography (GC).
Blood (0.5 ml) or phosphate buffer (0.5 ml) was collected at t=0, 12, 24, 36, 48 and 60 h. Blood samples were placed in Eppendorf heparin-coated glass vials (Agilent) by heparin-washed syringe, which were sealed with septa and screw caps. Each vial contained 100 μl of heparin and blood samples were frozen at −80° C. for storage. Prior to analysis, the blood or phosphate buffer was thawed to room temperature, a 10-μl volume of internal standards (6.5 mg linalyl isovalerate and 6.5 mg geranyl formate in 25 ml acetonitrile) was added to the vial and then the mixture was vortexed. The vials were tightly capped using a clear cap with septum. The septa were pre-punctured immediately before analysis using a needle to facilitate the insertion of the fiber sheath. The fiber sheath was inserted through the septum, and positioned to expose the fiber in the center of the headspace. The vial was placed on a heating block to maintain temperature at a constant 50° C. and the solid-phase microextraction (SPME) assembly was clamped securely. Absorption time was 30 min. No stirring was required. After absorption, the SPME fiber sheath was immediately transferred to the GC injector for desorption for 5 min and GC analysis.
GC was performed on an Agilent 7890A gas chromatograph equipped with a split/splitless capillary injector, flame ionization detection (FID) system and GC Chem Station (Version B.03.01; Agilent Technologies 2007). Chromatography was carried out on a WAX or HP-5 column (30 m×0.32 mm×0.25 μm). The GC operating conditions were: splitless or split 1:40 injector 240° C., oven 50° C. for 1 min and then 10° C. min^−1 to 160° C., then 25° C. min^−1 to 240° C. and held for 6 min; the carrier gas was hydrogen.
In this experiment, patches containing lavender essential oil were adhered to the abdomen area. Patches without essential oil served as blanks. […] Detection under splitless conditions facilitated the detection of linalyl acetate, linalool, camphor, borneol and α-terpineol, the latter two being additional constituents detected only under these conditions. High concentrations of linalool, borneol and camphor were detected, in comparison to low levels of terpeneol and linalyl acetate. […]

[2] = Decomposition of internal standards in blood and skin extract (GC, GC-MS); assay type: in vitro ADME, rat; settings: for Stability in the blood: GC-MS
Procedure: Linalyl isovalerate and geranyl formate were tested for their suitability as internal standards for linalool and linalyl acetate using headspace (HS)-SPME. Linalyl isovalerate was chosen as the most appropriate internal standard on the basis of area formed under the peak. A stock solution of linalyl isovalerate in acetonitrile (25 mg L^−1) was further diluted with acetonitrile to produce an aqueous solution of linalyl isovalerate (5 mg L^−1). A 10-μl volume of the aqueous linalyl isovalerate stock solution was added as the internal standard to each sample. Standard was prepared from 0.5 ml of blank blood, 10 μl internal standard (0.0026 mg linalyl isovalerate in 25 ml acetonitrile) and an appropriate dilution of lavender oil in 10 μl acetonitrile. Lavender oil was first dissolved in acetonitrile (625 mg L^−1) and further diluted with acetonitrile to make intermediate standards (0.5, 1, 5, 25 and 125 mg L^−1). The calibration curves were plotted using the peak area ratio of linalool (the main constituent of lavender oil) and linalyl isovalerate vs. linalool concentration. A standard stock solution of lavender oil (625 mg L^−1) was prepared in acetonitrile. Calibration standards for determination of linear dynamic range were prepared by serial dilutions with acetonitrile. For quantitative analysis of lavender oil in the blood, working standard solutions containing 0.5, 1, 5, 25 and 125 mg L^−1 of lavender were prepared by dilution of the 625 mg L^−1 solution with acetonitrile. […] The compounds absorbed on the fiber were detached and analyzed by exposing the fiber for 5 min in the injection port.
Two standards were checked for their suitability to this study: linalyl isovalerate and geranyl formate. […] Thus, although it is not possible to quantify linalool since the lavender essential oil may not be its only source, it is possible to quantify other components of lavender, and linalyl isovalerate was chosen to serve as the standard in the blood.

[3] = In-vivo experiment with WAX column, constituents in blood; parameters: species or system rat; settings: 7.5% lavender oil patch on abdomen; split injection
From the text: as §1, with “After 60 h, patches were removed and the application site was wiped with 70% alcohol. Animals were sacrificed and the patch of stomach skin to which the essential oil patch had been applied was removed and minced into small pieces. The skin pieces were placed in 1 ml of ethanol containing linalyl isovalerate as the internal standard and sonicated for 30 min after heating to 50° C. A 10-μl aliquot was then injected straight into the gas chromatograph. A urine sample (0.5 ml) was obtained from the bladder immediately after sacrifice.” left out, “(GC). […]” for “(GC).”
Patches that included lavender essential oil were adhered to the abdomen skin for 60 h. […] Between 12 and 36 h, a similar, non-significant change in levels was detected. […]

[4] = Ex-vivo transfer of essential-oil constituents through the skin in Franz diffusion cells; assay type: in vitro ADME, rat; settings: for Accumulated concentration transferred through the skin: from gum karaya-Lavandula angustifolia essential oil patch (7.5% oil); for Accumulated concentration diffused through the skin: mixture of Lavandula angustifolia essential oil and almond oil rubbed on the skin
Procedure: Ex-vivo release studies were performed in Franz diffusion cells (FCs) (PermeGear, Hellertown, Pa.). Stomach skin pieces (1.2 cm×1.2 cm) from a male rat, which were stored in the freezer for 1 month, were thawed at room temperature and placed in glass FCs. The surface area for absorption was 0.64 cm2. The FCs were thermoregulated with a water jacket at 32° C. The 4.5-ml volume of the receptor chamber of the FC was filled with a receptor solution containing 5% (w/v) bovine serum albumin (BSA) diluted with phosphate buffer pH 7.4. […] The receptor solution was continuously agitated with a magnetic stirrer. During the experiments, the donor compartments and sampling arms were sealed to prevent evaporation. The fluid in the receptor chamber was removed after different periods of time (0, 6, 12, 24, 36 and 48 h) and replaced with fresh phosphate buffer solution. Samples were stored at 4° C. after sampling, prior to analysis. Samples were analyzed in a gas chromatograph (Agilent Technologies, Santa Clara, Calif.) with a WAX 30 m×0.32 mm×0.25 μm (Agilent) column.
Transdermal delivery of essential-oil components through rat skin from both lavender essential oil, which includes a high proportion of terpenoids, and Valencia orange essential oil, which includes a considerable amount of terpene, entrapped within gum-karaya-based patches, was examined. In addition to the regular patch adhered to the skin to be tested for essential-oil delivery by the traditional FCs and by in vivo tests (detailed below), another experiment was performed in which the skin was smeared with an almond-essential oil mixture, in order to partially imitate the situation in which the skin is massaged in an aromatherapy session. All experiments were conducted at ambient temperature and the inclusion of the essential oil as part of the almond oil-essential oil mixture (for the massage-like simulation) was equal in quantity and proportion to the inclusion of essential oil within the patch.

[5] = cited from earlier work
[6] = Preliminary in-vivo experiment, constituents in blood (GC, WAX column); parameters: species or system rat; settings: rat, in vivo
[7] = cited from earlier work; remark: listed apart in the source

**Q.** For `CC1(C)C2CCC1(C)C(O)C2` (stereo not drawn) [borneol, Borneol], which concentration at 60 h [1] is on record?
**A.** 31 ng/mL

**Q.** For `C=CC(C)(CCC=C(C)C)OC(=O)CC(C)C` (stereo not drawn) [linalyl isovalerate], which “Stability in the blood” value [2] is on record?
**A.** decomposes in the blood

**Q.** And the “Stability in the skin extract” value ([2]; skin with essential oil-containing patch)?
**A.** did not decompose

**Q.** Which “Level in blood from 12 h onwards” value [1] does the source give for `CC1=CCC(C(C)(C)O)CC1` (stereo not drawn) [α-Terpeneol, α-Terpineol] here?
**A.** 5 to 9 ng/mL

**Q.** What does the source list for `CC12CCC(CC1=O)C2(C)C` (stereo not drawn) [Camphor]?
**A.** Level in blood after 60 h [3]: no traces; % diffused (of initial amount of entrapped essential oil) ([4]; Almond-lavandula mixture, 0 h): 0.00^a %; % diffused (of initial amount of entrapped essential oil) ([4]; Almond-lavandula mixture, 6 h): 0.01 ± 0.01^a %; % diffused (of initial amount of entrapped essential oil) ([4]; Almond-lavandula mixture, 12 h): 1.15 ± 1.26^a %; % diffused (of initial amount of entrapped essential oil) ([4]; Almond-lavandula mixture, 24 h): 2.28 ± 0.08^a %; % diffused (of initial amount of entrapped essential oil) ([4]; Lavandula patch, 0 h): 0.00^a %; % diffused (of initial amount of entrapped essential oil) ([4]; Lavandula patch, 6 h): 0.70 ± 0.04^b %; % diffused (of initial amount of entrapped essential oil) ([4]; Lavandula patch, 12 h): 1.02 ± 0.01^c %; % diffused (of initial amount of entrapped essential oil) ([4]; Lavandula patch, 24 h): 2.10 ± 0.32^d %; Accumulated concentration transferred through the skin ([4]; 6 h): 0.51 ± 0.33^a mg/L; Accumulated concentration transferred through the skin ([4]; 12 h): 0.74 ± 0.02^b mg/L; Accumulated concentration transferred through the skin ([4]; 24 h): 1.53 ± 0.13^c mg/L; Accumulated concentration diffused through the skin ([4]; 6 h): 0.01 ± 0.03^a mg L^−1; Accumulated concentration diffused through the skin ([4]; 12 h): 0.89 ± 0.98^a mg L^−1; Accumulated concentration diffused through the skin ([4]; 24 h): 1.78 ± 0.06^a mg L^−1; Calculated steady-state flux ([4]; rubbing in a mixture with almond oil): 5.7×10^−4 mg.cm^−2 h^−1; Calculated steady-state flux ([4]; transferred from a lavender essential oil patch): 4.3×10^−4 mg.cm^2 h^−1; Solubility in water [5]: relatively high; Detection in blood [6]: No levels of camphor were detected; Log P [7]: about 3; concentration at 60 h [1]: 35 ng/mL

**Q.** With `C=C(C)[C@H]1CC=C(C)CC1` [d-Limonene] as the compound, how does the “Log P” value [7] read?
**A.** about 4

**Q.** With `CC(C)=CCC/C(C)=C/COC=O` [geranyl formate] as the compound, how does the “Stability in the blood” value [2] read?
**A.** decomposes in the blood
